Measurements from patent US7045532B2 (Millennium Pharmaceuticals, Inc., priority 1999, dated 2006).
Like-named read-outs stand apart in the source and are kept apart here.

Molecular target: T1, ACE-2 (Homo sapiens, UniProt Q9BYF1)
T1 construct: a stop codon inserted after the serine immediately preceding the transmembrane domain; made in house; host or cells: CHO K1 cells (transient transfection, purified from conditioned medium)
Experiment: ACE-2 Competitive Substrate Assay (ACS Assay)
Assay type: biochemical

[1] = Ki class per key, compounds tested in 5% DMSO, 12 compound concentrations, 25° C., Ki=Kiapp/(1+[S]/Km), read-out: Human ACE-2 Activity
[2] = Table 3, very good ACE-2 inhibiting compounds, species not given, read-out: ACE-2 Activity, Ki

T1 sequence (Q9BYF1 18-740 limits assumed): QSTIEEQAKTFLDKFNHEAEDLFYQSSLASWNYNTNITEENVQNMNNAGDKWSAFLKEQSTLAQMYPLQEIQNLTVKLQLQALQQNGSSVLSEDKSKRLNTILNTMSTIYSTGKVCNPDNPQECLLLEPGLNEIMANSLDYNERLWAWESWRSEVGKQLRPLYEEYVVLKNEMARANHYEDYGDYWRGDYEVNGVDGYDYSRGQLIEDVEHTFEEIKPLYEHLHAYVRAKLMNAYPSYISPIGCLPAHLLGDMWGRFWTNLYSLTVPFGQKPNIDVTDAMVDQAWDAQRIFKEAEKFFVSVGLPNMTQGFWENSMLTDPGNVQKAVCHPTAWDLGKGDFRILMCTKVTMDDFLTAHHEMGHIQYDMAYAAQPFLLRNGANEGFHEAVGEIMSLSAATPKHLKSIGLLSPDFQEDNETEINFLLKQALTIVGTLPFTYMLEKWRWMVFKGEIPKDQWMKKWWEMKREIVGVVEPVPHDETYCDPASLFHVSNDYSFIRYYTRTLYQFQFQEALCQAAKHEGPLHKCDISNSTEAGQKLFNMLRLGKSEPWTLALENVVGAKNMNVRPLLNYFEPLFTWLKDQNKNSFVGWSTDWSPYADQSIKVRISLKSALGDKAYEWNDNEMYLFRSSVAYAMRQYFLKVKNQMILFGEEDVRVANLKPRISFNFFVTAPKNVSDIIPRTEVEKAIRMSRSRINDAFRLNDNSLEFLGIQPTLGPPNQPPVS

Structure (SMILES) | Ki [1] [nM] | Ki [2] [nM]
Cc1ccc(-c2ccc(C[C@H](N[C@@H](CC(C)C)C(=O)O)C(=O)O)cc2)nc1 [PZ, (S,S)-2-{1-Carboxy-2-[4-(5-methyl-pyridin-2-yl)-phenyl]-ethylamino}-4-methyl-pentanoic acid] | < 100 | < 50
Cc1ccnc(-c2ccc(C[C@H](N[C@@H](CC(C)C)C(=O)O)C(=O)O)cc2)c1 [QA, (S,S)-2-{1-Carboxy-2-[4-(4-methyl-pyridin-2-yl)-phenyl]-ethylamino}-4-methyl-pentanoic acid] | < 100 | 50 to 100
CCOc1ccnc(-c2ccc(C[C@H](N[C@@H](CC(C)C)C(=O)O)C(=O)O)cc2)c1Cl [QB, (S,S)-2-{1-Carboxy-2-[4-(3-chloro-4-ethoxy-pyridin-2-yl)-phenyl]-ethylamino}-4-methyl pentanoic acid] | < 100 | 50 to 100
CC(C)C[C@H](N[C@@H](Cc1ccc(-c2cnc3ccccc3c2)cc1)C(=O)O)C(=O)O [QC, (S,S)-2-[1-Carboxy-2-(4-quinolin-3-yl-phenyl)-ethylamino]-4-methyl-pentanoic acid] | < 100 | < 50
CC(C)C[C@H](N[C@@H](Cc1ccc(C(=O)NCc2cc(F)cc(F)c2)cc1)C(=O)O)C(=O)O [QD, 2-[1-Carboxy-2-[4-(3,5-difluoro-benzylcarbamoyl)phenyl]-ethylamino]-4-methyl-pentanoic acid] | > 500 | –
CC(C)C[C@H](N[C@@H](Cc1ccc(C(=O)Nc2cc(Cl)cc(Cl)c2)cc1)C(=O)O)C(=O)O [QE, 2-[1-Carboxy-2-[4-(3,5-dichloro-phenylcarbamoyl)-phenyl]ethylamino]-4-methyl-pentanoic acid] | < 100 | < 50
CC(C)C[C@H](N[C@@H](Cc1ccc(C(=O)Nc2ccccc2)cc1)C(=O)O)C(=O)O [QF, 2-[1-Carboxy-2-(4-phenylcarbamoyl-phenyl)-ethylamino]-4-methyl-pentanoic acid] | 100 to 500 | –
CC(C)C[C@H](N[C@@H](Cc1ccc(C(=O)NCc2ccccc2)cc1)C(=O)O)C(=O)O [QG, 2-[2-(4-Benzylcarbamoyl-phenyl)-1-carboxy-ethylamino]-4-methyl-pentanoic acid] | > 500 | –
CC(C)C[C@H](N[C@@H](Cc1ccc(C(=O)NC2CCCCC2)cc1)C(=O)O)C(=O)O [QH, 2-[1-Carboxy-2-(4-cyclohexylcarbamoyl-phenyl)-ethylamino]-4-methyl-pentanoic acid] | > 500 | –
CC(C)C[C@H](N[C@@H](Cc1ccccc1C#N)C(=O)O)C(=O)O [QI, 2-[1-Carboxy-2-(2-cyano-phenyl)-ethylamino]-4-methyl-pentanoic acid] | 100 to 500 | –
CC(C)C[C@H](N[C@@H](Cc1ccc(Oc2ccccc2)cc1)C(=O)O)C(=O)O [QJ, 2-[1-Carboxy-2-(4-phenoxy-phenyl)-ethylamino]-4-methyl-pentanoic acid] | 100 to 500 | –
CC(C)C[C@H](N[C@@H](Cc1ccc(OCc2csc3ccc(Cl)cc23)cc1)C(=O)O)C(=O)O [QK, 2-[1-Carboxy-2-[4-(5-chloro-benzo[b]thiophen-3-ylmethoxy)-phenyl]-ethylamino]-4-methyl-pentanoic acid] | < 100 | < 50
CC(C)C[C@H](N[C@@H](Cc1cc(-c2ccc(Cl)c(Cl)c2)on1)C(=O)O)C(=O)O [QL, 2-[1-Carboxy-2-[5-(3,4-dichloro-phenyl)-isoxazol-3-yl]-ethylamino)-4-methylpentanoic acid] | < 100 | 50 to 100
CC(C)C[C@H](N[C@@H](Cc1ccc(Oc2cc(Cl)cc(Cl)c2)cc1)C(=O)O)C(=O)O [QM] | 100 to 500 | –
CC(C)C[C@H](N[C@@H](Cc1ccccc1Oc1cc(Cl)cc(Cl)c1)C(=O)O)C(=O)O [QN] | < 100 | < 50
CC(C)C[C@H](N[C@@H](Cc1ccccc1OCc1cccc(Cl)c1)C(=O)O)C(=O)O [QO, 2-[1-Carboxy-2-[2-(3-chloro-benzyloxy)-phenyl]-ethylamino]-4-methyl-pentanoic acid] | > 500 | –
CC(C)C[C@H](N[C@@H](Cc1ccc(Oc2ccc(F)cc2)cc1)C(=O)O)C(=O)O [QP, 2-[1-Carboxy-2-[4-(4-fluoro-phenoxy)-phenyl]-ethylamino]-4-methyl-pentanoic acid] | < 100 | 50 to 100
Cc1ccc(-n2ccc(C[C@H](N[C@@H](CC(C)C)C(=O)O)C(=O)O)n2)cc1 [QQ, 2-[1-Carboxy-2-(1-p-tolyl-1H-pyrazol-3-yl)-ethylamino]-4-methyl-pentanoic acid] | < 100 | 50 to 100
CC(C)C[C@H](N[C@@H](Cc1ccc(NC(=O)C2CCCC2)cc1)C(=O)O)C(=O)O [QR, 2-[1-Carboxy-2-[4-(cyclopentanecarbonyl-amino)-phenyl]-ethylamino]-4-methyl-pentanoic acid] | 100 to 500 | –
CC(C)C[C@H](N[C@@H](Cc1ccc(NC(=O)C(C)(C)C)cc1)C(=O)O)C(=O)O [QS, 2-{1-Carboxy-2-[4-(2,2-dimethyl-propionylamino)-phenyl]-ethylamino}-4-methyl-pentanoic acid] | 100 to 500 | –
CC(C)C[C@H](N[C@@H](Cc1ccccc1OCc1csc2ccc(Cl)cc12)C(=O)O)C(=O)O [QT, 2-{1-Carboxy-2-[2-(5-chloro-benzo[b]thiophen-3-ylmethoxy)-phenyl]-ethylamino}-4-methyl-pentanoic acid] | > 500 | –
CC(C)C[C@H](N[C@@H](Cc1cc(-c2ccc(Cl)cc2)on1)C(=O)O)C(=O)O [QU, 2-(1-Carboxy-2-[5-(4-chloro-phenyl)-isoxazol-3-yl]-ethylamino]-4-methyl-pentanoic acid] | < 100 | < 50
CC(C)C[C@H](N[C@@H](Cc1cc(-c2ccccc2Cl)on1)C(=O)O)C(=O)O [QV, 2-[1-Carboxy-2-[5-(2-chloro-phenyl)-isoxazol-3-yl]-ethylamino]-4-methyl-pentanoic acid] | < 100 | –
CC(C)C[C@H](N[C@@H](Cc1ccc(OCC2COc3ccc(F)cc32)cc1)C(=O)O)C(=O)O (stereo partly drawn) [QW, 2-[1-Carboxy-2-[4-(5-fluoro-2,3-dihydro-benzofuran-3-ylmethoxy)-phenyl]-ethylamino]-4-methyl-pentanoic acid] | < 100 | < 50
CC(C)C[C@H](N[C@@H](Cc1ccc(OCc2csc3ccccc23)cc1)C(=O)O)C(=O)O [QX, 2-{2-[4-(Benzo[b]thiophen3-ylmethoxy)-phenyl]-1-carboxy-ethylamino]-4-methyl-pentanoic acid] | < 100 | –
CC(C)C[C@H](N[C@@H](Cc1ccc(C(=O)O)n1Cc1cc(Cl)cc(Cl)c1)C(=O)O)C(=O)O [QY, 5-[2-Carboxy-2-(1-carboxy-3-methyl-butylamino)-ethyl]-1-(3,5-dichloro-benzyl)-1H-pyrrole-2-carboxylic acid] | < 100 | < 50
CC(C)C[C@H](N[C@@H](Cc1ccc(C(=O)C(F)(F)F)n1CCC1CCCCC1)C(=O)O)C(=O)O [QZ, 2-[1-Carboxy-2-[1-(2-cyclohexyl-ethyl)-5-(2,2,2-trifluoro-acetyl)-1H-pyrrol-2-yl]-ethylamino]-4-methylpentanoic acid] | < 100 | < 50
CC(C)C[C@H](N[C@@H](Cc1ccc([N+](=O)O)cc1)C(=O)O)C(=O)O [RA, 2-[1-Carboxy-2-(4-nitro-phenyl)-ethylamino]-4-methyl-pentanoic acid] | 100 to 500 | –
COc1ccccc1C(=O)Nc1ccc(C[C@H](N[C@@H](CC(C)C)C(=O)O)C(=O)O)cc1 [RB, 2-[1-Carboxy-2-[4-(2-methoxy-benzoylamino)-phenyl]-ethylamino]-4-methyl-pentanoic acid] | < 100 | < 50
CC(C)C[C@H](N[C@@H](Cc1ccc(N(Cc2cc(F)cc(F)c2)Cc2cc(F)cc(F)c2)cc1)C(=O)O)C(=O)O [RD, 2-(2-(4-[Bis-(3,5-difluoro-benzyl)-amino]-phenyl)-1-carboxy-ethylamino)-4-methyl-pentanoic acid] | 100 to 500 | –
